Measurements: article PMC7238241, “Lack of Correlation between In Vitro and In Vivo Studies on the Inhibitory Effects of (‒)-Sophoranone on CYP2C9 Is Attributable to Low Oral Absorption and Extensive Plasma Protein Binding of (‒)-Sophoranone” (Pharmaceutics, 2020)
Where two headings read alike, the source gives them in different places.

Assays:
[1] = target: T1, CYP2C19 (Homo sapiens, UniProt P33261); experiment: Reversible CYP2C19 inhibition, cocktail assay (omeprazole 5-hydroxylase) in human liver microsomes; format: biochemical; details: human liver microsomes 0.1 mg/mL, omeprazole probe, n = 3
T1 construct: tissue Corning Life Sciences; host or cells: pooled human liver microsomes, 150 donors
T1 sequence (P33261 whole entry): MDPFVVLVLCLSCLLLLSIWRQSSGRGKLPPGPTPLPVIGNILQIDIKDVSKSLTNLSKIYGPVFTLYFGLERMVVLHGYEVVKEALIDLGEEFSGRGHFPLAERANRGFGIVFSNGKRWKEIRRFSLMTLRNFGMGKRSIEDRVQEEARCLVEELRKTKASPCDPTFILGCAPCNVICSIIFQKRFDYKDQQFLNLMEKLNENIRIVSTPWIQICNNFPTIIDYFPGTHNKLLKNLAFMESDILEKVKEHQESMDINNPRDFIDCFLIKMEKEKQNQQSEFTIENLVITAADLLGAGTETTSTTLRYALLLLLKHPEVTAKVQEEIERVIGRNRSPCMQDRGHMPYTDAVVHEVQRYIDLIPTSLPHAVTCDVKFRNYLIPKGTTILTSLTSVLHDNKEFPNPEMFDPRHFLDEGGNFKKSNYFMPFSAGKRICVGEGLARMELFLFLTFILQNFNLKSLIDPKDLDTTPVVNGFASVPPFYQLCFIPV
Experimental: (§1) The inhibitory effects of SPN on CYP1A2, CYP2A6, CYP2B6, CYP2C8, CYP2C9, CYP2C19, CYP2D6, CYP2E1, and CYP3A4 were evaluated in pooled human liver microsomes through the use of specific CYP probe substrates (cocktail assay), as previously described with a slight modification. Concentrations of each CYP probe in Table 1 were used close to their reported Km values.
(§2) Briefly, a 90-µL incubation mixture, including pooled human liver microsomes (final concentration 0.1 mg/mL), 50 mM phosphate buffer (pH 7.4), each CYP-probe substrate cocktail set, and SPN (0–50 μM), was pre-incubated for 5 min at 37 °C. SPN was dissolved in methanol and spiked into the incubation mixture to a final concentration of 0.5% methanol. […]
(§3) The IC50 values were calculated via nonlinear least-squares regression analysis from logarithmic plots of inhibitor concentration versus percentage of activity remaining after inhibition, using SigmaPlot (ver. 14.0; Systat Software Inc, Chicago, IL, USA). The Ki values were determined from the equations for a single substrate single inhibitor model and the software available in the SigmaPlot Enzyme Kinetics module. Competitive, non-competitive, uncompetitive, or mixed inhibition models were evaluated and ranked according to the best fit based on Akaike Information Criterion (AIC) values. […]

[2] = target: T2, CYP2B6 (Homo sapiens, UniProt P20813); experiment: Reversible CYP2B6 inhibition, cocktail assay (bupropion hydroxylase) in human liver microsomes; format: biochemical
T2 construct: tissue Corning Life Sciences; host or cells: pooled human liver microsomes, 150 donors
T2 sequence (P20813 1-491): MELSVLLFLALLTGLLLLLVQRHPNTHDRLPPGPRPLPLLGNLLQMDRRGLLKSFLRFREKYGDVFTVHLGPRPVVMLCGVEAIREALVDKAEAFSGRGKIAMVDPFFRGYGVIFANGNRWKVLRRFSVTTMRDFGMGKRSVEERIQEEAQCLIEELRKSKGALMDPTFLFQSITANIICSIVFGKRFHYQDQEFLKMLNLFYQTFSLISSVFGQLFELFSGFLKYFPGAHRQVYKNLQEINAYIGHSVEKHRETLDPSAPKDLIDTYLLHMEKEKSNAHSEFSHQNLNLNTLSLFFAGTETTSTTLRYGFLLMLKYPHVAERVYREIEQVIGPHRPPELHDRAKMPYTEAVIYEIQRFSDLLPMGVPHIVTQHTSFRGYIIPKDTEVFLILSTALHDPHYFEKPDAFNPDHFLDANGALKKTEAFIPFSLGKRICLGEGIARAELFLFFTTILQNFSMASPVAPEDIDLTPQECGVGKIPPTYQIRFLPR
Experimental: as §1, §2, §3

[3] = Unbound fraction in rat plasma (rapid equilibrium dialysis); format: in vitro ADME
Experimental: The plasma or liver microsomal protein bindings were performed using a rapid equilibrium dialysis device and cellulose membranes with a molecular weight cutoff of 8000 (Thermo Scientific, Rockford, IL, USA). The rat and human plasma samples (200 μL) containing SPN at 10 and 50 μM, respectively, were dialyzed against a dialysis buffer, phosphate-buffered saline (PBS, 400 μL). The loaded dialysis plate was covered with sealing tape, placed on an orbital shaker at approximately 200 rpm, and incubated at 37 °C for 4 h. Thereafter, samples (100 μL) from both PBS and plasma chambers were collected and mixed with an equal volume of blank plasma and PBS, respectively. All samples were stored at −80 °C until LC-MS/MS analysis. The unbound fraction of SPN in human (or rat) plasma was calculated by dividing the SPN concentration in PBS by that in plasma.

[4] = target: T3, CYP3A4 (Homo sapiens, UniProt P08684); experiment: Reversible CYP3A4 inhibition, cocktail assay (midazolam 1′-hydroxylase) in human liver microsomes; format: biochemical; details: midazolam probe
T3 construct: tissue Corning Life Sciences; host or cells: pooled human liver microsomes, 150 donors
T3 sequence (P08684 whole entry): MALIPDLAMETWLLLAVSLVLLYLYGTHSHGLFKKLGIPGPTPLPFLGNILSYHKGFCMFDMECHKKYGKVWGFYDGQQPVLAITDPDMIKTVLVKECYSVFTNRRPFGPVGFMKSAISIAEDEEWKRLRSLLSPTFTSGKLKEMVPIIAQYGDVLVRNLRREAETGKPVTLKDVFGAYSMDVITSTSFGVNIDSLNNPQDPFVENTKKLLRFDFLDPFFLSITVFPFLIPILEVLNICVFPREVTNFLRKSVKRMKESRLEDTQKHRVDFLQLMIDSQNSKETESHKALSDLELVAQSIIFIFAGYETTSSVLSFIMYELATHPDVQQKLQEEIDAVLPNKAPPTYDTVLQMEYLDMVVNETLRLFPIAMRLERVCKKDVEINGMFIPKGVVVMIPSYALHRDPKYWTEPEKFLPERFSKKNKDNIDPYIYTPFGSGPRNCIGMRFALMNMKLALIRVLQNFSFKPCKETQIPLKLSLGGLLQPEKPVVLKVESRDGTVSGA
Experimental: as §1, §2, §3

[5] = target: T4, CYP2C9 (Homo sapiens, UniProt P11712); experiment: Inhibition of other CYP2C9-specific pathways (diclofenac 4′-hydroxylation, losartan oxidation) in human liver microsomes; format: biochemical
T4 construct: tissue Corning Life Sciences; host or cells: pooled human liver microsomes, 150 donors
T4 sequence (P11712 whole entry): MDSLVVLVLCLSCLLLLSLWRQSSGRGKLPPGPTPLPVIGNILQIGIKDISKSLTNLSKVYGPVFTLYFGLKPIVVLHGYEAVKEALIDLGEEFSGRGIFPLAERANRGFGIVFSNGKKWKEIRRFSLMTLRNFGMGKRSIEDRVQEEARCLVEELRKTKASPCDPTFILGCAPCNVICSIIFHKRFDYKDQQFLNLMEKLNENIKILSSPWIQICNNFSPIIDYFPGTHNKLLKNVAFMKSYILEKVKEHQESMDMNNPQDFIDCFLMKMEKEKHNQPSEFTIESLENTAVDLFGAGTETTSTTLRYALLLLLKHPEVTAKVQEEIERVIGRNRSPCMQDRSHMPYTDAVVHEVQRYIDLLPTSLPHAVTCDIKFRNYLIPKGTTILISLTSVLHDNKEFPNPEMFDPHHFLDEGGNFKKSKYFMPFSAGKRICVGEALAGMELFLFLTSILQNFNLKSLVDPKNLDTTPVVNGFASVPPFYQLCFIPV
Experimental: The auto-optimized mass transitions were m/z 312 > 231 and m/z 437 > 207.1 for quantification of 4′-hydroxydiclofenac and losartan carboxylic acid, respectively. HPLC conditions were the same as those in the cocktail assay.
The IC50 values were calculated via nonlinear least-squares regression analysis from logarithmic plots of inhibitor concentration versus percentage of activity remaining after inhibition, using SigmaPlot (ver. 14.0; Systat Software Inc, Chicago, IL, USA). The Ki values were determined from the equations for a single substrate single inhibitor model and the software available in the SigmaPlot Enzyme Kinetics module. Competitive, non-competitive, uncompetitive, or mixed inhibition models were evaluated and ranked according to the best fit based on Akaike Information Criterion (AIC) values. For visual inspection, the data were presented as Dixon plots.

[6] = target: T5, CYP2D6 (Homo sapiens, UniProt P10635); experiment: Reversible CYP2D6 inhibition, cocktail assay (dextromethorphan O-demethylase) in human liver microsomes; format: biochemical
T5 construct: tissue Corning Life Sciences; host or cells: pooled human liver microsomes, 150 donors
T5 sequence (P10635 whole entry): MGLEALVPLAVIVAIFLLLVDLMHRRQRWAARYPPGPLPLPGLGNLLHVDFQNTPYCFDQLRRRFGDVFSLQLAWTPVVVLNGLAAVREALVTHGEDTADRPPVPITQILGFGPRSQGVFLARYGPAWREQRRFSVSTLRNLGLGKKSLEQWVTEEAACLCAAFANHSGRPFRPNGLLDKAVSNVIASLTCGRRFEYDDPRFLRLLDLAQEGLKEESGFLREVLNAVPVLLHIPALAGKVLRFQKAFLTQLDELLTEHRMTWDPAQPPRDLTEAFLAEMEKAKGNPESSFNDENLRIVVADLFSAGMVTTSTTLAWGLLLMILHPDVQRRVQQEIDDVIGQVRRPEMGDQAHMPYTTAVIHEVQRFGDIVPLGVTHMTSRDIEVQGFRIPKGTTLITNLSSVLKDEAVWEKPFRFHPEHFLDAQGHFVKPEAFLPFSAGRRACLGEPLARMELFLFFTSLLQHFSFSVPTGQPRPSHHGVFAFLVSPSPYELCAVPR
Experimental: as §1, §2, §3

[7] = target: T6, CYP2C8 (Homo sapiens, UniProt P10632); experiment: Reversible CYP2C8 inhibition, cocktail assay (rosiglitazone p-hydroxylase) in human liver microsomes; format: biochemical; details: human liver microsomes 0.1 mg/mL, rosiglitazone probe, n = 3
T6 construct: tissue Corning Life Sciences; host or cells: pooled human liver microsomes, 150 donors
T6 sequence (P10632 1-490): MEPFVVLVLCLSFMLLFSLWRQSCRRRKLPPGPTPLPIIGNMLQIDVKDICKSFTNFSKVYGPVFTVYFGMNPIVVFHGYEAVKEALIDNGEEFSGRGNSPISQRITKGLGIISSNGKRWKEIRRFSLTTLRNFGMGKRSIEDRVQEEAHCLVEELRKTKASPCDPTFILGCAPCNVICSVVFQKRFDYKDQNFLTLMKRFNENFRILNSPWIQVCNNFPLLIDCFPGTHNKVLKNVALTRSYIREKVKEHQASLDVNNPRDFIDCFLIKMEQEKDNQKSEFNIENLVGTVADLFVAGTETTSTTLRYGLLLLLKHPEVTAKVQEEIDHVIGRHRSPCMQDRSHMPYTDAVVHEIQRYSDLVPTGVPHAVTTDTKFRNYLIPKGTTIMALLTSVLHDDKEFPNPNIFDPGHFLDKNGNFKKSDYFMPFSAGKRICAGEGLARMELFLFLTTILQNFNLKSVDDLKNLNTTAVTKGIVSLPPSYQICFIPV
Experimental: as §1, §2, §3

[8] = at the highest tested concentration (50 μM)

CC(C)=CCc1cc([C@@H]2CC(=O)c3ccc(O)c(CC=C(C)C)c3O2)cc(CC=C(C)C)c1O [SPN, (‒)-Sophoranone]
IC50 [1]: 16.8 ± 3.21 µM | residual enzyme activity, CYP2B6 [2, 8]: greater than 80% | IC50 ([2]; human liver microsomes 0.1 mg/mL, cocktail assay, bupropion probe, n = 3): > 50 µM | fraction unbound at 4 h, 10 µM ([3]; 10 μM, 37 °C, 4 h, n = 3, read-out: free fraction in rat plasma): 0.00038 ± 0.000102 | fraction unbound at 4 h, 50 µM ([3]; 50 μM, 37 °C, 4 h, n = 3, read-out: free fraction in rat plasma): 0.000531 ± 0.000149 | fraction unbound at 4 h ([3]; 10 and 50 μM, read-out: plasma protein binding, rat): < 0.001 | residual enzyme activity, CYP3A4 [4, 8]: 53.3 ± 4.00% | IC50 ([4]; human liver microsomes 0.1 mg/mL, cocktail assay, n = 3): > 50 µM | IC50 ([5]; IC50, CYP2C9-catalyzed diclofenac 4′-hydroxylation, diclofenac 5 μM): 0.879 ± 0.0888 µM | IC50 ([5]; losartan 5 μM, read-out: IC50, CYP2C9-catalyzed losartan oxidation): 0.455 ± 0.0486 µM | residual enzyme activity, CYP2D6 [6, 8]: 53.9 ± 3.53% | IC50 ([6]; human liver microsomes 0.1 mg/mL, cocktail assay, dextromethorphan probe, n = 3): > 50 µM | IC50 [7]: 13.6 ± 3.15 µM
